The subject of one series is Pseudomonas aeruginosa. Briefly: Antimicrobial activity against Pseudomonas aeruginosa ATCC 27853 by tube dilution method. The series is classed as functional.
The subject of the next series is Klebsiella pneumoniae. Briefly: Antimicrobial activity against multidrug-resistant Klebsiella pneumoniae ATCC 700603 by tube dilution method. The series is classed as functional.
The subject of the next series is Acinetobacter baumannii. Briefly: Antimicrobial activity against multidrug-resistant Acinetobacter baumannii ATCC BAA-1605 by tube dilution method. Format: functional.
The nature of series [1]: Toxicity in human erythrocytes assessed as hemolysis at 150 uM after 1 hr. Format: cell-based, Erythrocyte. The conditions noted are these: read-out: Activity.
For a further series, the system named is Enterococcus faecium. The series is described as follows: Antimicrobial activity against vancomycin-resistant Enterococcus faecium ATCC 700221 by tube dilution method. The series is classed as functional.
The next series has as its system Candida albicans. Briefly: Antifungal activity against Candida albicans ATCC 200955 by tube dilution method. Format: functional.
The subject of another series is Staphylococcus aureus. Briefly: Antimicrobial activity against methicillin-resistant Staphylococcus aureus ATCC 33591 by tube dilution method. The series is classed as functional.
The next series relates to Escherichia coli. The series is described as follows: Antimicrobial activity against Escherichia coli ATCC 25922 by tube dilution method. Format: functional.
The nature of series [2]: Toxicity in human erythrocytes assessed as hemolysis after 1 hr. The series is classed as cell-based, Erythrocyte.

SMILES strings stand for the structures. Converted amounts (≈) assume the structure as drawn. Square brackets hold non-standard residues; d marks the D form. Peptide text beside a SMILES is read from it. Bip = N[C@@H](Cc1ccc(-c2ccccc2)cc1)C(=O)O; Dip = N[C@H](C(=O)O)C(c1ccccc1)c1ccccc1; 2Nal = N[C@@H](Cc1ccc2ccccc2c1)C(=O)O; GABA = NCCCC(=O)O Some results are limits rather than exact numbers.

As usually defined, the MIC is the lowest concentration that inhibits growth of the organism. Read a low MIC as greater potency. By EC50 is commonly meant the concentration giving half of the maximal effect.

On to `CC(C)C[C@@H]1NC(=O)CCCNC(=O)[C@H](Cc2ccc3ccccc3c2)NC(=O)[C@H](CCCNC(=N)N)NC(=O)[C@H](CC(C)C)NC(=O)[C@H](Cc2ccc3ccccc3c2)NC(=O)[C@H](CCCNC(=N)N)NC1=O` (cyclo([2Nal][GABA]LR[2Nal]LR)), for which the MIC in the series on Pseudomonas aeruginosa was found to be 128 µM (≈ 130 µg/mL); against Klebsiella pneumoniae, 128 µM (≈ 130 µg/mL); against Acinetobacter baumannii, 128 µM (≈ 130 µg/mL); in the series with Enterococcus faecium it was 8 µM (≈ 8.15 µg/mL); with Candida albicans, 16 µM (≈ 16.3 µg/mL); against Staphylococcus aureus, 16 µM (≈ 16.3 µg/mL). The minimal inhibitory concentration (MIC) in the series on Escherichia coli came out at 64 µM (≈ 65.2 µg/mL). Also, the hemolysis at 1 h, 150 µM in [1] was determined as 22%. In addition, in [2], the EC50 at 1 hr is 230 µM.
`CC(C)C[C@@H]1NC(=O)CNC(=O)[C@H](Cc2ccc(-c3ccccc3)cc2)NC(=O)[C@H](CCCNC(=N)N)NC(=O)[C@H](CC(C)C)NC(=O)[C@H](Cc2ccc(-c3ccccc3)cc2)NC(=O)[C@H](CCCNC(=N)N)NC1=O` (cyclo([Bip]GLR[Bip]LR)): the MIC was found to be 64 µM (≈ 66.7 µg/mL) in the series with Pseudomonas aeruginosa; 32 µM (≈ 33.4 µg/mL) in the series with Klebsiella pneumoniae; 32 µM (≈ 33.4 µg/mL) against Acinetobacter baumannii; 8 µM (≈ 8.34 µg/mL) against Enterococcus faecium; 16 µM (≈ 16.7 µg/mL) in the series with Candida albicans; 8 µM (≈ 8.34 µg/mL) in the series on Staphylococcus aureus. The same molecule yielded a minimal inhibitory concentration (MIC) with Escherichia coli of 16 µM (≈ 16.7 µg/mL). Moreover, in series [1], the hemolysis at 1 h, 150 µM turned out to be 96%. Further, the EC50 at 1 hr in series [2] was 16 µM.
On to `CC(C)C[C@@H]1NC(=O)CNC(=O)[C@H](C(c2ccccc2)c2ccccc2)NC(=O)[C@H](CCCNC(=N)N)NC(=O)[C@H](CC(C)C)NC(=O)[C@H](C(c2ccccc2)c2ccccc2)NC(=O)[C@H](CCCNC(=N)N)NC1=O` (cyclo([Dip]GLR[Dip]LR)), for which the minimal inhibitory concentration (MIC) against Pseudomonas aeruginosa was greater than 128 µM; against Klebsiella pneumoniae it was 128 µM (≈ 133 µg/mL); against Acinetobacter baumannii, 64 µM (≈ 66.7 µg/mL); with Enterococcus faecium, 16 µM (≈ 16.7 µg/mL); in the series with Candida albicans it was 64 µM (≈ 66.7 µg/mL); against Staphylococcus aureus, 16 µM (≈ 16.7 µg/mL). In the series on Escherichia coli, this molecule registered a minimum inhibitory concentration (MIC) of 64 µM (≈ 66.7 µg/mL). Further, the hemolysis at 1 h, 150 µM in series [1] amounted to 54%. Also, in series [2], the EC50 at 1 hr is 145 µM.

These data come from ChEMBL document CHEMBL4000149, “The effect of glycine replacement with flexible ω-amino acids on the antimicrobial and haemolytic activity of an amphipathic cyclic heptapeptide” (Eur J Med Chem, 2015).
